Read-outs that look alike come from different tables or passages of the source.
Key:
[1] = tested on: men exhibiting androgenetic alopecia of stage III to V according to the Hamilton classification; experiment: 1st study: in vivo activity, total pilar density of hairs per cm^2 (DE) by phototrichogram; set-up: species or system human; conditions: for No. of hairs/per cm^2 (DE): mean ± standard deviation
Text: It was studied at a concentration of 2%, formulated in a ternary lotion based on propylene glycol, ethanol and water.

[2] = tested on: proline hydroxylase; conditions: K. Majamaa et al., Eur. J. Biochem., 138, 1984, 239-245; cited from earlier work
[3] = tested on: men exhibiting androgenetic alopecia of stage III to V according to the Hamilton classification; conditions: for No. of hairs/per cm^2 (DE): mean ± standard deviation
Method: Pyridine-2,4-dicarboxylic acid was tested in the form of the Na double salt formulated at a concentration of 5% in an aqueous/alcoholic lotion.
The evaluation of the effectiveness of the treatments was carried out by determining the total pilar density of hairs per cm^2 (DE) using the phototrichogram technique. This examination was carried out before treatment (M0) and after 3 months of treatment (M3).

Structure (SMILES) | change of total density of treated areas (in words) ([1]; 2% lotion, 3 months, placebo areas do not change) | No. of hairs/per cm^2 (DE) ([1]; M0, before treatment, scalp area to receive 2% lotion (propylene glycol, ethanol, water), 25 men) [hairs/per cm^2] | No. of hairs/per cm^2 (DE) ([1]; M3, after 3 months, 2% lotion, 30 μl once daily, 5 days per week, topical on scalp) [hairs/per cm^2] | DE variation (%) ([1]; M3 with respect to M0, 2% lotion, 30 μl once daily, 5 days per week, 3 months) | inhibition of proline hydroxylase (in words) [2] | hair loss (decrease in total density) compared with placebo areas, times smaller ([3]; 5% lotion, 3 months, versus placebo areas) [times] | No. of hairs/per cm^2 (DE) ([3]; M0, before treatment, scalp area to receive 5% aqueous/alcoholic lotion, 22 men) [hairs/per cm^2] | No. of hairs/per cm^2 (DE) ([3]; M3, after 3 months, 5% aqueous/alcoholic lotion, 30 μl once daily, 5 days per week, topical on scalp) [hairs/per cm^2] | DE variation (%) ([3]; mean of the variation at M3 with respect to M0, 5% lotion, 30 μl once daily, 5 days per week, 3 months)
O=C(O)c1ccnc(C(=O)O)c1 [Pyridine-2,4-dicarboxylic acid] | increase in the total density | 213 ± 45 | 224 ± 53 | 4.4 | very weak inhibitors |  |  |  | 
O=C(O)c1ccc(C(=O)O)nc1 [pyridine-2,5-dicarboxylic acids, pyridine-2,5-dicarboxylic acid] |  |  |  |  | very weak inhibitors |  |  |  | 
O=C([O-])c1ccnc(C(=O)[O-])c1.[Na+].[Na+] [Na disalt of Pyridine-2,4-dicarboxylic acid] |  |  |  |  |  | 4 | 249 ± 50 | 246 ± 50 | −0.97
